These are literature values, as cited in US20180015057A1, “ERR ALPHA AND ERR GAMMA ARE ESSENTIAL COORDINATORS OF CARDIAC METABOLISM AND FUNCTION” (Salk Institute for Biological Studies, priority 2015, published 2018).

Each structure is given as a SMILES string.

In one data set the target is T1, ERRγ (Homo sapiens, UniProt P62508).
T1 sequence (P62508 1-458): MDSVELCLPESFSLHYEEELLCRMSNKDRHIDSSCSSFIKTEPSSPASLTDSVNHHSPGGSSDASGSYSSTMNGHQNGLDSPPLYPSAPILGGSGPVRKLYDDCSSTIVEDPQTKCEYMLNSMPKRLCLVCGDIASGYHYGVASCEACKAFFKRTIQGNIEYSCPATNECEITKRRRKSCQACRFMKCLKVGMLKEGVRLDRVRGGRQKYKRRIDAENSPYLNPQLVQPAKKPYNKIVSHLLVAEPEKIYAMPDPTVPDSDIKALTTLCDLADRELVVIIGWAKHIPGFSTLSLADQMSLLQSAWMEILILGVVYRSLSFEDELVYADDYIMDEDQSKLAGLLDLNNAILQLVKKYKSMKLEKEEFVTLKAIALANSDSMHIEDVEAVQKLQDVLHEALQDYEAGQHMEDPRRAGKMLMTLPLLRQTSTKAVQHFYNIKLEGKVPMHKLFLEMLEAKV
The settings on record: for activation of ERRγ: for example in the presence of PGC-1a.

Another data set has as its target T2, ERRβ (Homo sapiens, UniProt O95718).
T2 sequence (O95718 1-433): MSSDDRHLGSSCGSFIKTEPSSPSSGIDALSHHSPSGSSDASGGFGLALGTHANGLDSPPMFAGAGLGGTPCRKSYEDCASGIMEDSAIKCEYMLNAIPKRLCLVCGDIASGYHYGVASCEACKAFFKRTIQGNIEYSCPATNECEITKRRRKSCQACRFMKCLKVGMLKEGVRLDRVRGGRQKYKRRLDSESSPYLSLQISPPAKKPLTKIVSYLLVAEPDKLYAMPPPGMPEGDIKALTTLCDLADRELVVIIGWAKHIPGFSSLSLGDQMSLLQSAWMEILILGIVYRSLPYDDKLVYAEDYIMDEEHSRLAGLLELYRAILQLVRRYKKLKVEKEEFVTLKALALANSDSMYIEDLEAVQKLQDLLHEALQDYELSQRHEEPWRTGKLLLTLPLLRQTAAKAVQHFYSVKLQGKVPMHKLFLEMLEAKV
The settings on record: for activation of ERRβ: for example in the presence of PGC-1a.

The target of the next data set is T3, ERRα (Homo sapiens, UniProt P11474).
T3 sequence (P11474 1-423): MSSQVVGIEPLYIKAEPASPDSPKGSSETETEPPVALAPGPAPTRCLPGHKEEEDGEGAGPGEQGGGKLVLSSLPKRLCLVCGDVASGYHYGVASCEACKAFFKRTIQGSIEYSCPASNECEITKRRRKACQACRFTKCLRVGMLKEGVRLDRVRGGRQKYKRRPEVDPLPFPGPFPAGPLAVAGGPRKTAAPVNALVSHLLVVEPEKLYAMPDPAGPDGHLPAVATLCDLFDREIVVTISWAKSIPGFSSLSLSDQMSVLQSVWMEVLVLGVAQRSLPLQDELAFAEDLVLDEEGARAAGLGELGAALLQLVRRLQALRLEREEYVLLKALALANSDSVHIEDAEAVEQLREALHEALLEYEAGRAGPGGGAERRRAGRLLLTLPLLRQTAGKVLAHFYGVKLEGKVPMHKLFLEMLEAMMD
Particulars: for example in the presence of PGC-1a.

In the case of `CCN(CC)c1ccc(C=NNC(=O)c2ccc(O)cc2)cc1` (stereo in doubt) [GSK9089, N-[(E)-[4-(diethylamino)phenyl]methylideneamino]-4-hydroxybenzamide], the “agonism of ERRγ” value on ERRγ is given as “agonists”. For the same compound, the “agonism of ERRβ” value on ERRβ is given as “agonists”.

On to `Cc1cccc(C=NNC(=O)c2ccc(O)cc2)c1` [DY159], for which the “activation of ERRγ” value at ERRγ is “activate”. Also, on ERRβ, the “activation of ERRβ” value was “activate”. On ERRα, the “activation of ERRα” value is listed as “activate”.

As to `O=C(NN=Cc1ccccc1)c1ccc(O)cc1` [DY162], the “activation of ERRγ” value on ERRγ is recorded as “activate”. Moreover, at ERRβ, the “activation of ERRβ” value is listed as “activate”. The “activation of ERRα” value on ERRα is given as “activate”.

As for `Cc1ccc(/C=N/NC(=O)c2ccc(O)cc2)cc1` [DY163], the “activation of ERRγ” value on ERRγ is “activate”. The “activation of ERRβ” value on ERRβ is “activate”. At ERRα, the “activation of ERRα” value is “activate”.

Take `CCc1ccc(C=NNC(=O)c2ccc(O)cc2)s1` [DY164]: the “activation of ERRγ” value at ERRγ was “activate”. Besides, the “activation of ERRβ” value on ERRβ is on record as “activate”. Besides, on ERRα, the “activation of ERRα” value is “activate”.

For `Nc1ccc(C(=O)N/N=C/c2ccc(/N=N/c3ccccc3)cc2)cn1` [E6], the “selectivity for ERRγ versus ERRα and β” value on ERRγ (screening assay for agonists derived from GSK4716 (Kim et al. 2009)) was “selective for ERRγ but not ERRα and β”.

On to `CC(C)c1ccc(/C=N/NC(=O)c2ccc(O)cc2)cc1` [GSK4716], for which, on ERRβ, the “agonism of ERRβ” value was “agonists”.
